Assay results published in PubChem BioAssay (NCI).
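48-hour exposure; five concentrations; linearly interpolated endpoints. GI50 = concentration required for 50% inhibition of growth. TGI is the concentration that stops growth completely.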

Assays:
Experiment in all cases: NCI anticancer screen, dose series, 48 h
U251 CNS = test system: U251 CNS
HT29 colon = test system: HT29 colon
OVCAR-3 ovarian = test system: OVCAR-3 ovarian
SK-OV-3 ovarian = test system: SK-OV-3 ovarian
UACC-257 melanoma = test system: UACC-257 melanoma
UO-31 renal = test system: UO-31 renal
SK-MEL-2 melanoma = test system: SK-MEL-2 melanoma
BT-549 breast = test system: BT-549 breast
SF-295 CNS = test system: SF-295 CNS
HCC-2998 colon = test system: HCC-2998 colon
MDA-MB-435 = test system: MDA-MB-435
A549 NSCLC = test system: A549 NSCLC
A498 renal = test system: A498 renal
NCI-H226 lung = test system: NCI-H226 lung
ACHN renal = test system: ACHN renal
786-0 renal = test system: 786-0 renal
HOP-92 NSCLC = test system: HOP-92 NSCLC
OVCAR-5 ovarian = test system: OVCAR-5 ovarian
HCT-116 colon = test system: HCT-116 colon
HL-60(TB) leukemia = test system: HL-60(TB) leukemia
MDA-MB-231 breast = test system: MDA-MB-231 breast
SK-MEL-28 melanoma = test system: SK-MEL-28 melanoma
LOX IMVI melanoma = test system: LOX IMVI melanoma
K-562 leukemia = test system: K-562 leukemia
DU-145 prostate = test system: DU-145 prostate
TK-10 renal = test system: TK-10 renal
SW-620 colon = test system: SW-620 colon
NCI-H23 lung = test system: NCI-H23 lung
CCRF-CEM leukemia = test system: CCRF-CEM leukemia
HS 578T breast = test system: HS 578T breast
M14 melanoma = test system: M14 melanoma
CAKI-1 renal = test system: CAKI-1 renal
HCT-15 colon = test system: HCT-15 colon
OVCAR-4 ovarian = test system: OVCAR-4 ovarian
NCI/ADR-RES ovarian = test system: NCI/ADR-RES ovarian
IGROV1 ovarian = test system: IGROV1 ovarian
RPMI-8226 leukemia = test system: RPMI-8226 leukemia
SF-268 CNS = test system: SF-268 CNS
SK-MEL-5 melanoma = test system: SK-MEL-5 melanoma
NCI-H460 lung = test system: NCI-H460 lung
MALME-3M melanoma = test system: MALME-3M melanoma
SNB-75 CNS = test system: SNB-75 CNS
RXF 393 renal = test system: RXF 393 renal
COLO 205 colon = test system: COLO 205 colon
EKVX NSCLC = test system: EKVX NSCLC
MOLT-4 leukemia = test system: MOLT-4 leukemia
SR leukemia = test system: SR leukemia
MCF7 breast = test system: MCF7 breast
NCI-H522 lung = test system: NCI-H522 lung
PC-3 prostate = test system: PC-3 prostate
UACC-62 melanoma = test system: UACC-62 melanoma
SNB-19 CNS = test system: SNB-19 CNS
OVCAR-8 ovarian = test system: OVCAR-8 ovarian
KM12 colon = test system: KM12 colon
HOP-62 NSCLC = test system: HOP-62 NSCLC
SN12C renal = test system: SN12C renal
SF-539 CNS = test system: SF-539 CNS
T-47D breast = test system: T-47D breast

`Cn1c(C(=O)c2ccncc2)cc2ccccc21` showed a GI50 (U251 CNS) of over 100 µM, a TGI (U251 CNS) of over 100 µM and a GI50 (HT29 colon) of 92.8 µM. It also gave a TGI (HT29 colon) of over 100 µM, a GI50 (OVCAR-3 ovarian) of 49.7 µM and a TGI (OVCAR-3 ovarian) of over 100 µM. It also gave a GI50 (SK-OV-3 ovarian) of over 100 µM, a TGI (SK-OV-3 ovarian) of over 100 µM and a GI50 (UACC-257 melanoma) of over 100 µM. It also gave a TGI (UACC-257 melanoma) of over 100 µM, a GI50 (UO-31 renal) of 27.4 µM and a TGI (UO-31 renal) of over 100 µM. It also gave a GI50 (SK-MEL-2 melanoma) of over 100 µM, a TGI (SK-MEL-2 melanoma) of over 100 µM and a GI50 (BT-549 breast) of over 100 µM. The TGI (BT-549 breast) was over 100 µM, the GI50 (SF-295 CNS) was over 100 µM and the TGI (SF-295 CNS) was over 100 µM. For the same compound, the GI50 (HCC-2998 colon) was over 100 µM, the TGI (HCC-2998 colon) was over 100 µM and the GI50 (MDA-MB-435) was over 100 µM. For the same compound, the TGI (MDA-MB-435) was over 100 µM, the GI50 (A549 NSCLC) was over 100 µM and the TGI (A549 NSCLC) was over 100 µM. For the same compound, the GI50 (A498 renal) was 26.2 µM, the TGI (A498 renal) was over 100 µM and the GI50 (NCI-H226 lung) was over 100 µM. For the same compound, the TGI (NCI-H226 lung) was over 100 µM, the GI50 (ACHN renal) was over 100 µM and the TGI (ACHN renal) was over 100 µM. For the same compound, the GI50 (786-0 renal) was over 100 µM, the TGI (786-0 renal) was over 100 µM and the GI50 (HOP-92 NSCLC) was 40.2 µM. The TGI (HOP-92 NSCLC) was over 100 µM, the GI50 (OVCAR-5 ovarian) was over 100 µM and the TGI (OVCAR-5 ovarian) was over 100 µM. The GI50 (HCT-116 colon) was 72 µM, the TGI (HCT-116 colon) was over 100 µM and the GI50 (HL-60(TB) leukemia) was 76.5 µM. The TGI (HL-60(TB) leukemia) was over 100 µM, the GI50 (MDA-MB-231 breast) was 66.5 µM and the TGI (MDA-MB-231 breast) was over 100 µM. It also gave a GI50 (SK-MEL-28 melanoma) of over 100 µM, a TGI (SK-MEL-28 melanoma) of over 100 µM and a GI50 (LOX IMVI melanoma) of over 100 µM. For the same compound, the TGI (LOX IMVI melanoma) was over 100 µM, the GI50 (K-562 leukemia) was 59.3 µM and the TGI (K-562 leukemia) was over 100 µM. For the same compound, the GI50 (DU-145 prostate) was over 100 µM, the TGI (DU-145 prostate) was over 100 µM and the GI50 (TK-10 renal) was over 100 µM. For the same compound, the TGI (TK-10 renal) was over 100 µM, the GI50 (SW-620 colon) was 52.8 µM and the TGI (SW-620 colon) was over 100 µM. For the same compound, the GI50 (NCI-H23 lung) was over 100 µM, the TGI (NCI-H23 lung) was over 100 µM and the GI50 (CCRF-CEM leukemia) was over 100 µM. It also gave a TGI (CCRF-CEM leukemia) of over 100 µM, a GI50 (HS 578T breast) of 65 µM and a TGI (HS 578T breast) of over 100 µM. The GI50 (M14 melanoma) was over 100 µM, the TGI (M14 melanoma) was over 100 µM and the GI50 (CAKI-1 renal) was 72.9 µM. The TGI (CAKI-1 renal) was over 100 µM, the GI50 (HCT-15 colon) was 90.9 µM and the TGI (HCT-15 colon) was over 100 µM. For the same compound, the GI50 (OVCAR-4 ovarian) was over 100 µM, the TGI (OVCAR-4 ovarian) was over 100 µM and the GI50 (NCI/ADR-RES ovarian) was 46.8 µM. The TGI (NCI/ADR-RES ovarian) was over 100 µM, the GI50 (IGROV1 ovarian) was over 100 µM and the TGI (IGROV1 ovarian) was over 100 µM. It also gave a GI50 (RPMI-8226 leukemia) of 48.8 µM, a TGI (RPMI-8226 leukemia) of over 100 µM and a GI50 (SF-268 CNS) of 96.7 µM. It also gave a TGI (SF-268 CNS) of over 100 µM, a GI50 (SK-MEL-5 melanoma) of 37.5 µM and a TGI (SK-MEL-5 melanoma) of over 100 µM. The GI50 (NCI-H460 lung) was over 100 µM, the TGI (NCI-H460 lung) was over 100 µM and the GI50 (MALME-3M melanoma) was over 100 µM. The TGI (MALME-3M melanoma) was over 100 µM, the GI50 (SNB-75 CNS) was 85.6 µM and the TGI (SNB-75 CNS) was over 100 µM. The GI50 (RXF 393 renal) was 35.1 µM, the TGI (RXF 393 renal) was over 100 µM and the GI50 (COLO 205 colon) was over 100 µM. For the same compound, the TGI (COLO 205 colon) was over 100 µM, the GI50 (EKVX NSCLC) was 78.1 µM and the TGI (EKVX NSCLC) was over 100 µM. The GI50 (MOLT-4 leukemia) was 54.4 µM, the TGI (MOLT-4 leukemia) was over 100 µM and the GI50 (SR leukemia) was 63.1 µM. For the same compound, the TGI (SR leukemia) was over 100 µM, the GI50 (MCF7 breast) was over 100 µM and the TGI (MCF7 breast) was over 100 µM. It also gave a GI50 (NCI-H522 lung) of 78.5 µM, a TGI (NCI-H522 lung) of over 100 µM and a GI50 (PC-3 prostate) of 80.7 µM. For the same compound, the TGI (PC-3 prostate) was over 100 µM, the GI50 (UACC-62 melanoma) was 83.5 µM and the TGI (UACC-62 melanoma) was over 100 µM. The GI50 (SNB-19 CNS) was over 100 µM, the TGI (SNB-19 CNS) was over 100 µM and the GI50 (OVCAR-8 ovarian) was 46 µM. It also gave a TGI (OVCAR-8 ovarian) of over 100 µM, a GI50 (KM12 colon) of 75.5 µM and a TGI (KM12 colon) of over 100 µM. The GI50 (HOP-62 NSCLC) was over 100 µM, the TGI (HOP-62 NSCLC) was over 100 µM and the GI50 (SN12C renal) was over 100 µM. It also gave a TGI (SN12C renal) of over 100 µM, a GI50 (SF-539 CNS) of 87.5 µM and a TGI (SF-539 CNS) of over 100 µM. It also gave a GI50 (T-47D breast) of 41.6 µM and a TGI (T-47D breast) of over 100 µM.
